Measured values: article PMC9455918, “Quinolizidines as Novel SARS-CoV-2 Entry Inhibitors” (International Journal of Molecular Sciences, 2022)
Several values for one entry are separate records, joined by “and”; a condition that tells them apart may be missing. Identical values can stand only once. Like-named read-outs stand apart in the source and are kept apart here.

Experiments:
[1] = test system: D614G spike-pseudotyped virus; type: cell-based, SARS-CoV-2
[2] = test system: Omicron BA.1 spike-pseudotyped virus; test: microbe, parasite or virus in culture; type: cell-based, SARS-CoV-2
[3] = 293T-ACE2 cells, 3 days, luciferase reporter, mean ± SD of three tests, Inactive = CC50/IC50 ratio < 5

SMILES	IC50 [1]	also measured
C1=C2CCCN[C@H]2[C@@H]2C[C@H]1[C@H]1CCCCN1C2 [Aloperine, aloperine, reference compound]	11.5 ± 2.3 µM	–
CCN(CC)CCCC(C)Nc1ccnc2cc(Cl)ccc12 (centres unmarked) [Chloroquine diphosphate, reference compound]	2.3 ± 3.6 µM	–
O=C(NCCCCCCN1CCCC2CC3CC(CN4CCCCC34)C21)c1c(F)cc(Br)cc1F (centres unmarked) [Compound 1]	4.7 ± 0.76 µM	–
O=C(NCCN1CCCC2=CC3CC(CN4CCCCC34)C21)c1ccccc1F (centres unmarked) [Compound 2]	–	IC50, D614G spike-pseudotyped virus [1]: Inactive ^8
O=C(Cc1ccc(S(=O)(=O)C(F)(F)F)cc1)NCCCCN1CCCC2=CC3CC(CN4CCCCC34)C21 (centres unmarked) [Compound 3]	3.8 ± 0.68 µM	–
C1=C2CCCN(CCCCCNCc3ccccc3)C2C2CC1C1CCCCN1C2 (centres unmarked) [Compound 4]	0.86 ± 1.5 µM	IC50, D614G spike-pseudotyped virus [1, 3]: sub-µM potency
C1=C2CCCN(CCCCNCc3ccccc3)C2C2CC1C1CCCCN1C2 (centres unmarked) [Compound 5]	0.5 µM and 0.53 µM	Fold more potent than aloperine against D614G spike-pseudotyped virus [1]: approximately 22 fold; Fold more potent than chloroquine against D614G spike-pseudotyped virus [1]: ~5 fold; IC50, D614G spike-pseudotyped virus [1, 3]: sub-µM potency; Fold less sensitive, Omicron variants [2]: approximately 1.5 fold; IC50 ([2]; Severe acute respiratory syndrome coronavirus 2, 293T/ACE2, read-out: IC50, Omicron BA.1 spike-pseudotyped virus): 0.76 ± 0.22 µM
COc1ccc(C(=O)NCCCCN2CCCC3=CC4CC(CN5CCCCC45)C32)cc1 (centres unmarked) [Compound 6]	11.9 ± 2.1 µM	–
CC(C)(C)c1ccc(C(=O)NCCCCCCN2CCCC3=CC4CC(CN5CCCCC45)C32)cc1 (centres unmarked) [Compound 7]	3.7 ± 0.87 µM	–
O=C(NCCCCCCCC(=O)N1CCCC2=CC3CC(CN4CCCCC34)C21)c1ccc(OC(F)(F)F)cc1 (centres unmarked) [Compound 8]	17.5 ± 2.3 µM	IC50, D614G spike-pseudotyped virus [1, 3]: weak inhibitor
Fc1ccc(CNCCCCN2CCCC3=CC4CC(CN5CCCCC45)C32)cc1 (centres unmarked) [Compound 9]	0.61 ± 0.18 µM	–
CCOC(=O)[C@H]1O[C@@H]1C(=O)N[C@@H](CC(C)C)C(=O)NCCC(C)C [Compound E64D, E64D, reference compound]	–	IC50 [1, 3]: 0.48 ± 0.11 µM; IC50 ([2]; read-out: IC50, Omicron BA.1 spike-pseudotyped virus): 0.36 ± 0.076 µM
